# Target: human TRPA1 (Homo sapiens (Human), UniProt O75762)
# Assay: Measurement of TRPA1 antagonist activity (1): intracellular calcium increase
# Format: cell-based
# Details: 293T cells transfected with human TRPA1 expression plasmid; allylisothiocyanate 20 μM stimulation; intracellular calcium fluorescence; read-out: hTRPA1 IC50
# From the text: Measurement of TRPA1 Antagonist Activity (1)
# Human TRPA1 Expression Plasmid
# As cDNA encoding human TRPA1 (GenBank accession No. […]), a commercially available product was purchased (manufactured by Kazusa DNA Research Institute, clone No.: pFN21AB7348, item No.: FHC07217). Using this as a template, full-length human TRPA1 gene was amplified using the primer sequences shown below, by reaction using DNA polymerase (manufactured by Stratagene, trade name: PfuUltra High-Fidelity DNA Polymerase).
# A recognition site (underlined) of restriction enzyme HindIII was added to the 5′ side, and XbaI site (underlined) was added to the 3′ side, and GTT of the template sequence was changed to termination codon TAG (bold). The obtained double stranded DNA was enzyme-digested with HindIII and XbaI, and introduced into the multicloning site of expression plasmid pcDNA3.1/zeo(+) (manufactured by Invitrogen) to construct a human TRPA1 expression plasmid.
# Human embryonic kidney-derived 293T cells were cultured in Dulbecco's Modified Eagle Medium containing 10% fetal bovine serum, 10 unit penicillin, and 10 μg streptomycin, plated on a petri dish having a diameter of 10 cm at 3×10^6 cells, and cultured for 24 hr in a CO2 incubator. A reduced serum medium (manufactured by Invitrogen, trade name: OPTI-MEM, 600 μL), a gene transfer reagent (manufactured by Mirus Bio, trade name: Mirus TransIT-293, 18 μL), and human TRPA1 expression plasmid (6 μg) were mixed, the total amount of the mixture was added to the cells on the petri dish to allow for gene transfer. The cells were recovered about for 8 hr later, plated on a poly-D-lysine coated 384 well black/clear bottom plate at 12,000 cells/well, and cultured overnight.
# Measurement of Intracellular Calcium Increase
# The 384 well plate was recovered, and the medium was removed. A calcium-bonded fluorescent indicator (manufactured by Molecular Device, trade name: Calcium4 Assay Kit, 38 μL) dissolved in assay buffer (1×HBSS, 20 mM HEPES, pH 7.2) was added, and the cells were stained in a CO2 incubator for 1 hr. The cells were taken out at room temperature, stood for not less than 15 min, a test substance (10 μL) was added by a platereader FDSS7000 (Hamamatsu Photonics K.K.) equipped with a 384ch dispenser. After 10 min, allylisothiocyanate (12 μL) was further added at a final concentration of 20 μM, and changes in the relative fluorescence intensity after addition of allylisothiocyanate were measured for 5 min.
# Test Substance Preparation
# The test substance was dissolved in dimethyl sulfoxide and serially diluted with an assay buffer containing 0.1% bovine serum albumin (1×HBSS, 20 mM HEPES, pH 7.2) to a 4.8-fold concentration of the evaluation concentration. Allylisothiocyanate, which is a known TRPA1 activator, was dissolved in dimethyl sulfoxide to 100 mM, and further diluted 5-fold (100 μM) of the final concentration, like the test substance.
# Calculation of Antagonist Activity
# Under the test substance-free conditions, the maximum variation range of the fluorescence intensity before and after allylisothiocyanate stimulation was defined to be 100% activity rate, and the variation range before and after buffer stimulation was defined as 0% activity rate. The activity rate on addition of the test substance was determined, and the numerical value obtained by subtracting the activity rate from 100 was defined to be an inhibitory rate. IC50, which is the concentration of the test substance necessary for reaching the 50% inhibitory rate, was calculated from the sigmoid approximate curve by a spreadsheet software Excel-Fit.
# Chain of human TRPA1 (O75762 whole entry): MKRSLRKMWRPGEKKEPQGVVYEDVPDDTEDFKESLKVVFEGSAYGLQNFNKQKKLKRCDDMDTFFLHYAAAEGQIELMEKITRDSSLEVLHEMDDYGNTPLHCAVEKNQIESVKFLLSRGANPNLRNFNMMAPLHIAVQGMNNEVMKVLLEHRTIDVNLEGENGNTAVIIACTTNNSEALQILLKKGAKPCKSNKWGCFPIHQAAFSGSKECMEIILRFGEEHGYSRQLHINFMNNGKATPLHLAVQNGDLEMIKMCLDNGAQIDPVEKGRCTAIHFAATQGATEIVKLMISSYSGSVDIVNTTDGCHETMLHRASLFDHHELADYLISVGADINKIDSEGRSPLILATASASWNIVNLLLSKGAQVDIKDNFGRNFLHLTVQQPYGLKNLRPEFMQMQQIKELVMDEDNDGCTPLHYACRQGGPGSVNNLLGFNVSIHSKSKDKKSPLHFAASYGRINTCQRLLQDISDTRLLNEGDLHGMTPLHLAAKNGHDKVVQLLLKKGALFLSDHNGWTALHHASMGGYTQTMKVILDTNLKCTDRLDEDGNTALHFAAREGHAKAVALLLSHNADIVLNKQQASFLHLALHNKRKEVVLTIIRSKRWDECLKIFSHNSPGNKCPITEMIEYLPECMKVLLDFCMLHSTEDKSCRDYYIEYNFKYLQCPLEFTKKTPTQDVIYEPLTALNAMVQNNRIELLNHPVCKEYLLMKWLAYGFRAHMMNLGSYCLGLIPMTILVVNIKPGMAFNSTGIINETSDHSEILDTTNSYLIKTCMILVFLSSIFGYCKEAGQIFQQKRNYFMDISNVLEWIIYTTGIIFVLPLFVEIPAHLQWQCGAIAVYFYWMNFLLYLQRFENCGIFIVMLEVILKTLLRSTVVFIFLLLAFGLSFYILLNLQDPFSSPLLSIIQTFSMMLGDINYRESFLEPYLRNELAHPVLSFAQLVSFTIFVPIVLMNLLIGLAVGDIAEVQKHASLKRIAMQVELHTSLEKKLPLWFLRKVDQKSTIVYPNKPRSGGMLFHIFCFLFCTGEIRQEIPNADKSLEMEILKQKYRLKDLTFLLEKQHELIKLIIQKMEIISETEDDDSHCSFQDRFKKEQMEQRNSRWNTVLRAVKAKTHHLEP
row,IC50 [nM],Structure (SMILES)
1,12,"O=C(NCc1cc(-c2ccc(C(F)(F)F)cn2)ccn1)[C@@H]1c2ccccc2CN1S(=O)(=O)c1cc2cc(F)ccc2o1 (racemic) [Example 264, (rac)-2-(5-fluorobenzofuran-2-yl)sulfonyl-N-[[4-[5-(trifluoromethyl)-2-pyridyl]-2-pyridyl]methyl]isoindoline-1-carboxamide]"
2,3,"N#Cc1ccc(COc2cccc(CNC(=O)[C@@H]3CCCN3S(=O)(=O)c3cc4ccccc4o3)c2)cc1 [Example 1, (2S)-1-(benzofuran-2-ylsulfonyl)-N-[[3-[(4-cyanophenyl)methoxy]phenyl]methyl]pyrrolidine-2-carboxamide]"
3,7.9,"N#Cc1cccc(COc2cccc(CNC(=O)[C@@H]3CCCN3S(=O)(=O)c3cc4ccccc4o3)c2)c1 [Example 2, (2S)-1-(benzofuran-2-ylsulfonyl)-N-[[3-[(3-cyanophenyl)methoxy]phenyl]methyl]pyrrolidine-2-carboxamide]"
4,72,"O=C(NCc1cccc(OCc2cccnc2)c1)[C@@H]1CCCN1S(=O)(=O)c1cc2ccccc2o1 [Example 3, (2S)-1-(benzofuran-2-ylsulfonyl)-N-[[3-(3-pyridylmethoxy)phenyl]methyl]pyrrolidine-2-carboxamide]"
5,23,"O=C(NCc1cccc(OCc2ccco2)c1)[C@@H]1CCCN1S(=O)(=O)c1cc2ccccc2o1 [Example 4, (2S)-1-(benzofuran-2-ylsulfonyl)-N-[[3-(2-furylmethoxy)phenyl]methyl]pyrrolidine-2-carboxamide]"
6,12,"O=C(NCc1cccc(OCc2cccs2)c1)[C@@H]1CCCN1S(=O)(=O)c1cc2ccccc2o1 [Example 5, (2S)-1-(benzofuran-2-ylsulfonyl)-N-[[3-(2-thienylmethoxy)phenyl]methyl]pyrrolidine-2-carboxamide]"
7,7.5,"O=C(NCc1cccc(OCc2ccsc2)c1)[C@@H]1CCCN1S(=O)(=O)c1cc2ccccc2o1 [Example 6, (2S)-1-(benzofuran-2-ylsulfonyl)-N-[[3-(3-thienylmethoxy)phenyl]methyl]pyrrolidine-2-carboxamide]"
8,5.4,O=C(NCc1cccc(OCc2ccnc(C(F)(F)F)c2)c1)[C@@H]1CCCN1S(=O)(=O)c1cc2ccccc2o1 [Example 7]
9,6.2,"O=C(NCc1cccc(OCc2ccc(C(F)(F)F)nc2)c1)[C@@H]1CCCN1S(=O)(=O)c1cc2ccccc2o1 [Example 8, (2S)-1-(benzofuran-2-ylsulfonyl)-N-[[3-[[6-(trifluoromethyl)-3-pyridyl]methoxy]phenyl]-methyl]pyrrolidine-2-carboxamide]"
10,7.6,"O=C(NCc1cccc(OCc2cncc(C(F)(F)F)c2)c1)[C@@H]1CCCN1S(=O)(=O)c1cc2ccccc2o1 [Example 9, (2S)-1-(benzofuran-2-ylsulfonyl)-N-[[3-[[5-(trifluoromethyl)-3-pyridyl]methoxy]phenyl]-methyl]pyrrolidine-2-carboxamide]"
11,10,"O=C(NCc1cccc(OCc2cncc(Cl)c2)c1)[C@@H]1CCCN1S(=O)(=O)c1cc2ccccc2o1 [Example 10, (2S)-1-(benzofuran-2-ylsulfonyl)-N-[[3-[(5-chloro-3-pyridyl)methoxy]-phenyl]methyl]-pyrrolidine-2-carboxamide]"
12,1,"N#Cc1ccc(COc2cccc(CNC(=O)[C@@H]3CCCN3S(=O)(=O)c3cc4cc(F)ccc4o3)c2)cc1 [Example 11, (2S)-N-[[3-[(4-cyanophenyl)methoxy]phenyl]methyl]-1-(5-fluorobenzofuran-2-yl)sulfonyl-pyrrolidine-2-carboxamide]"
13,8.1,"CN(C)c1cccc(COc2cccc(CNC(=O)[C@@H]3CCCN3S(=O)(=O)c3cc4cc(F)ccc4o3)c2)c1 [Example 12, (2S)-N-[[3-[[3-(dimethylamino)phenyl]methoxy]phenyl]-methyl]-1-(5-fluorobenzofuran-2-yl)sulfonyl-pyrrolidine-2-carboxamide]"
14,19,"O=C(NCc1cccc(OCc2ccncc2)c1)[C@@H]1CCCN1S(=O)(=O)c1cc2cc(F)ccc2o1 [Example 13, (2S)-1-(5-fluorobenzofuran-2-yl)sulfonyl-N-[[3-(4-pyridylmethoxy)phenyl]methyl]pyrrolidine-2-carboxamide]"
15,20,"O=C(NCc1cccc(OCc2cccnc2)c1)[C@@H]1CCCN1S(=O)(=O)c1cc2cc(F)ccc2o1 [Example 14, (2S)-1-(5-fluorobenzofuran-2-yl)sulfonyl-N-[[3-(3-pyridylmethoxy)phenyl]-methyl]pyrrolidine-2-carboxamide]"
16,100,"O=C(NCc1cccc(OCc2ccccn2)c1)[C@@H]1CCCN1S(=O)(=O)c1cc2cc(F)ccc2o1 [Example 15, (2S)-1-(5-fluorobenzofuran-2-yl)sulfonyl-N-[[3-(2-pyridylmethoxy)phenyl]-methyl]pyrrolidine-2-carboxamide]"
17,2.8,"O=C(NCc1cccc(OCc2ccnc(C(F)(F)F)c2)c1)[C@@H]1CCCN1S(=O)(=O)c1cc2cc(F)ccc2o1 [Example 16, (2S)-1-(5-fluorobenzofuran-2-yl)sulfonyl-N-[[3-[[2-(trifluoromethyl)-4-pyridyl]methoxy]phenyl]-methyl]pyrrolidine-2-carboxamide]"
18,15,"CN(C)c1cc(COc2cccc(CNC(=O)[C@@H]3CCCN3S(=O)(=O)c3cc4cc(F)ccc4o3)c2)ccn1 [Example 17, (2S)-N-[[3-[[2-(dimethylamino)-4-pyridyl]methoxy]phenyl]-methyl]-1-(5-fluorobenzofuran-2-yl)sulfonyl-pyrrolidine-2-carboxamide]"
19,14,"Cc1ccc(COc2cccc(CNC(=O)[C@@H]3CCCN3S(=O)(=O)c3cc4cc(F)ccc4o3)c2)cn1 [Example 19, (2S)-1-(5-fluorobenzofuran-2-yl)sulfonyl-N-[[3-[(6-methyl-3-pyridyl)methoxy]phenyl]-methyl]pyrrolidine-2-carboxamide]"
20,1.4,"O=C(NCc1cccc(OCc2ccc(C(F)(F)F)nc2)c1)[C@@H]1CCCN1S(=O)(=O)c1cc2cc(F)ccc2o1 [Example 20, (2S)-1-(5-fluorobenzofuran-2-yl)sulfonyl-N-[[3-[[6-(trifluoromethyl)-3-pyridyl]methoxy]phenyl]-methyl]pyrrolidine-2-carboxamide]"
21,34,"CN(C)c1ccc(COc2cccc(CNC(=O)[C@@H]3CCCN3S(=O)(=O)c3cc4cc(F)ccc4o3)c2)cn1 [Example 21, (2S)-N-[[3-[[6-(dimethylamino)-3-pyridyl]methoxy]phenyl]-methyl]-1-(5-fluorobenzofuran-2-yl)sulfonyl-pyrrolidine-2-carboxamide]"
22,110,"CN(C)c1cncc(COc2cccc(CNC(=O)[C@@H]3CCCN3S(=O)(=O)c3cc4cc(F)ccc4o3)c2)c1 [Example 23, (2S)-N-[[3-[[5-(dimethylamino)-3-pyridyl]methoxy]phenyl]-methyl]-1-(5-fluorobenzofuran-2-yl)sulfonyl-pyrrolidine-2-carboxamide]"

row,Structure (SMILES),IC50 [nM]
1,"CN1CCOc2cc(COc3cccc(CNC(=O)[C@@H]4CCCN4S(=O)(=O)c4cc5cc(F)ccc5o4)c3)cnc21 [Example 24, (2S)-1-(5-fluorobenzofuran-2-yl)sulfonyl-N-[[3-[(4-methyl-2,3-diphydropyrido[3,2-b][1,4]oxazin-7-yl)methoxy]-phenyl]methyl]pyrrolidine-2-carboxamide]",410

# — patent US10626112B2, “Heterocyclic sulfonamide derivative and medicine comprising same” (EA PHARMA CO., LTD., priority 2014, dated 2020)
